Measurements from paper PMC11054274, “Dual Antitubercular and Antileishmanial Profiles of Quinoxaline Di-N-Oxides Containing an Amino Acidic Side Chain” (Pharmaceuticals, 2024).
Like-named read-outs stand apart in the source and are kept apart here.

Experiments:
[1] = system: Mycobacterium tuberculosis H37Rv; assay: In vitro activity against Mycobacterium tuberculosis H37Rv, microdilution AlamarBlue broth assay (BacTiter-Glo alternative read-out); format: cell-based; conditions: for IC90: read-out: IC90, antibacterial activity against Mtb H37Rv
[2] = system: Leishmania amazonensis promastigotes; assay: Promastigote susceptibility assay (resazurin), L. amazonensis; format: cell-based; conditions: for IC50: Table S2, 48 h, read-out: L. amazonensis IC50 (promastigote); for IC50 / activity against L. amazonensis (in words): promastigotes; for L. amazonensis promastigote selectivity index (SI): SI = CC50 (J774 macrophages)/IC50
Procedure: (§1) The following species of Leishmania were used: L. donovani (MHOM/IN/80/DD8), which was purchased (ATCC, Manassas, VA, USA), and L. amazonensis (MHOM/Br/79/Maria), which was kindly provided by Prof. Alfredo Toraño (Instituto de Salud Carlos III, Madrid, Spain). Promastigotes were cultured in Schneider’s Insect Medium supplemented with 10% heat-inactivated Fetal Bovine Serum (FBS) (SIGMA-Merck, Madrid, Spain) and 1000 U/L of penicillin plus 100 mg/L of streptomycin in 25 mL culture flasks at 26 °C.
(§2) The activity of the compounds on Leishmania promastigotes was performed according to the method previously reported by us. Briefly, promastigotes (2.5 × 10^5 parasites/well) were cultured in 96-well plastic plates. The compounds were dissolved in dimethylsulfoxide (DMSO). Serial dilutions at 1:2 of the test compounds in fresh culture medium were performed (100, 50, 25, 12.5, 6.25, 3.12, 1.56 and 0.78 µg/mL) in a final volume of 200 µL; the solutions were then added to the parasite suspension. After an incubation period of 48 h at 26 °C, a volume of 20 μL of 2.5 mM resazurin solution in PBS was added and the plates were incubated for 3 h under the same conditions. Finally, the Relative Fluorescence Unit (RFU) (535ex–590em nm wavelength) was determined in a fluorimeter (Infinite 200 Tecan i-Control). Growth inhibition (%) was calculated by 100—[(RFU treated wells—RFU signal-to-noise)/(RFU untreated—RFU signal-to-noise) × 100]. All tests were carried out in triplicate and the IC50 was calculated by probit analysis using SPSS 17.0 Statistics Software. Miltefosine (Sigma-Merck, Madrid, Spain) was used as the reference drug.

[3] = system: Leishmania donovani promastigotes; assay: Promastigote susceptibility assay (resazurin), L. donovani; format: cell-based; conditions: for IC50: Table S2, 48 h; for IC50 / activity against L. donovani (in words): promastigotes
Procedure: as §1, §2

[4] = Cytotoxicity assay on macrophages (resazurin); format: cell-based, murine; conditions: mouse, J774 macrophages, Table S2; 24 h exposure; read-out: Toxicity against J774 macrophages CC50
Procedure: (§3) J774 murine macrophages were grown in RPMI-1640 medium (Sigma) supplemented with 10% heat-inactivated FBS (30 min at 56 °C) (SIGMA-Merck), penicillin G (100 U/mL) and streptomycin (100 µg/mL). For the experiments, cells in the pre-confluence phase were harvested with trypsin. Cell cultures were maintained at 37 °C in a humidified environment with 5% CO2.
(§4) Cell viability was evaluated using a modification with resazurin of the colorimetric method described previously. J774 macrophages were seeded (5 × 10^4 cells/well) in 96-well flat-bottom microplates with 100 µL of RPMI-1640 medium. The cells were allowed to adhere for 4 h at 37 °C in 5% CO2, then different concentrations of the test compounds in 100 µL of the medium were added and exposed for 24 h. Growth controls were also included. To evaluate cell viability, 20 µL of a 2.5 mM resazurin solution was added and the plates were returned to the incubator for another 3 h. The reduction in resazurin was determined by measuring the fluorescence intensity (excitation wavelength, 535 nm; emission wavelength, 590 nm). Each concentration was assayed three times. The medium and controls were used in each test as blanks. The cytotoxic effect of the compounds was defined as the 50% reduction in cell viability of treated culture cells with respect to the untreated culture (CC50).

J774 murine macrophages = assay: Cytotoxicity assay on macrophages (resazurin); format: cell-based; conditions: for CC50: 24 h exposure, read-out: Toxicity against J774 macrophages CC50
Procedure: as §3, §4

[5] = system: Leishmania amazonensis amastigotes; assay: Intracellular amastigote assay in J774 macrophages, L. amazonensis; format: cell-based; conditions: Table S3; intracellular amastigotes, 48 h; read-out: L. amazonensis IC50 (amastigote)
Procedure: We performed an intracellular amastigote assay on L. amazonensis and L. donovani according to a fluorometric method reported by us. To carry out the in vitro macrophage infections, 5 × 10^4 cells were cultured in RPMI-1640 medium and then were infected with 5 × 10^5 promastigotes. In the L. donovani assays, the plates were incubated for 48 h at 37 °C, while in the L. amazonensis assays, they were incubated at 33 °C for the first 24 h and then the temperature was increased to 37 °C for the next 24 h. After, the culture medium was removed and the cells were washed with buffered RPMI-HEPES at pH 7.4 several times in order to eliminate the non-internalized promastigotes. A total of 100 µL of fresh medium tempered at 37 °C was added to the infected cells, which then were exposed to 100 µL of the test compounds in RPMI-1640 at different concentrations (100, 50, 25, 12.5, 6.25, 3.12, 1.56 and 0.78 µg/mL in a final volume of 200 µL) for 48 h at 37 °C. The culture medium was removed by centrifugation at 3500 rpm for 5 min (Centrifuge 5403 Eppendorf) and a lysis solution (0.02% sodium dodecyl sulfate in RPMI-HEPES) was added. After 20 min, the treated cells were harvested (centrifugation at 3500 rpm for 5 min at 4 °C) and the supernatants were replaced by 200 μL of fresh Schneider’s culture medium. The plates were then incubated at 26 °C for another 3 days to allow for the transformation of viable amastigotes into promastigotes and proliferation. Afterwards, 20 μL/well of 2.5 mM resazurin was added and incubated for another 3 h. Finally, URF was measured and IC50 was estimated as described above. All tests were carried out in triplicate. Miltefosine was used as the reference drug.

[6] = Mycobacterium tuberculosis, Table S1, Mtb H37Rv, read-out: IC50, antibacterial activity against Mtb H37Rv
[7] = Mycobacterium tuberculosis, Table S1, Mtb H37Rv
[8] = Table S1, Mtb H37Rv, read-out: IC50, antibacterial activity against Mtb H37Rv
[9] = Mycobacterium tuberculosis, H37Rv strain, read-out: IC50 against Mycobacterium tuberculosis H37Rv

COC(=O)CNC(=O)c1c(-c2ccc(C)cc2)[n+]([O-])c2cc(OC)ccc2[n+]1[O-] [Compound 4j, N-(6-Methoxy-1,4-dioxide-3-(4-methylphenyl)quinoxaline-2-carbonyl)glycine methyl ester]
IC50 [1, 6]: 12.9 µM | IC90 [1, 7]: 24.6 µM | IC50 ([2]; Leishmania amazonensis): 111 ± 4 µM | L. amazonensis promastigote selectivity index (SI) [2]: 2.9 | IC50 ([3]; Leishmania donovani): 13.8 ± 9.5 µM | L. donovani promastigote selectivity index (SI) ([3]; SI = CC50 (J774 macrophages)/IC50): 23.2 | CC50 at 24 h [4]: 318.6 ± 0.84 µM

O=C(O)CNC(=O)c1c(-c2ccc(F)cc2)[n+]([O-])c2ccccc2[n+]1[O-] [Compound 5d, 2-((Carboxymethyl)carbamoyl)-3-(4-fluorophenyl)quinoxaline 1,4-dioxide]
IC50 ([2]; Leishmania amazonensis): > 280 µM | L. amazonensis promastigote selectivity index (SI) [2]: > 3.0 | IC50 ([3]; Leishmania donovani): > 280 µM | CC50 at 24 h [4]: 840 µM

COC(=O)CNC(=O)c1c(-c2ccc(C(F)(F)F)cc2)[n+]([O-])c2cc(C)ccc2[n+]1[O-] [Compound 4l, N-(6-Methyl-1,4-dioxide-3-(4-trifluoromethylphenyl)quinoxaline-2-carbonyl)glycine methyl ester]
IC50 [1, 8]: 7.2 µM | IC90 ([1]; Table S1, Mtb H37Rv): 15.5 µM | IC50 [2]: > 230 µM | activity against L. amazonensis (in words) [2]: inactive | activity against L. donovani (in words) [3]: inactive | CC50 (J774 murine macrophages; Table S2): 1380 µM

COc1ccc2c(c1)[n+]([O-])c(-c1ccccc1)c(C(=O)NCC(=O)OCc1ccccc1)[n+]2[O-] [Compound 4f, N-(6-Methoxy-1,4-dioxide-3-(phenyl)quinoxaline-2-carbonyl)glycine benzyl ester]
IC50 [1, 8]: 21.9 µM | IC90 ([1]; Table S1, Mtb H37Rv): 47.9 µM | IC50 [2]: > 261 µM | activity against L. amazonensis (in words) [2]: inactive | IC50 [3]: > 261 µM | activity against L. donovani (in words) [3]: inactive

NNC(=O)c1ccncc1 [Isoniazid, reference compound]
IC50 [1, 6]: 0.18 µM | IC90 [1, 7]: 0.29 µM

N[C@@H]1CON=C1O [Cycloserine, reference compound]
IC50 [1, 9]: 12.5 µM | IC90 [1, 7]: 13.5 µM

NCC[C@H](O)C(=O)N[C@@H]1C[C@H](N)[C@@H](O[C@H]2O[C@H](CN)[C@@H](O)[C@H](O)[C@H]2O)[C@H](O)[C@H]1O[C@H]1O[C@H](CO)[C@@H](O)[C@H](N)[C@H]1O [Amikacin, reference compound]
IC50 [1, 6]: 0.07 µM | IC90 [1, 7]: 0.08 µM

CC[C@@H](CO)NCCN[C@@H](CC)CO [Ethambutol, reference compound]
IC50 [1, 6]: 1.56 µM | IC90 [1, 7]: 32.8 µM

COC(=O)CNC(=O)c1c(-c2ccccc2)[n+]([O-])c2cc(C(F)(F)F)ccc2[n+]1[O-] [Compound 4n, N-(1,4-Dioxide-6-trifluoromethyl-3-phenylquinoxaline-2-carbonyl)glycine methyl ester]
IC50 [1, 8]: 11.9 µM | IC90 ([1]; Table S1, Mtb H37Rv): 27.9 µM | IC50 [2]: 97.3 ± 4.3 µM | IC50 [3]: 43.5 ± 1.1 µM | CC50 (J774 murine macrophages; Table S2): 191 ± 29.3 µM

N-(1,4-Dioxide-3-((4,5-dimethoxy-2-nitro-phenyl)quinoxaline-2-carbonyl)glycine benzyl ester [Compound 4e]
IC50 [1, 8]: 25.2 µM | IC90 ([1]; Table S1, Mtb H37Rv): 47.9 µM | IC50 [2]: 25.1 ± 0.56 µM | IC50 [3]: 34 ± 5.2 µM | toxicity to macrophages (in words) (J774 murine macrophages): highly toxic to macrophages | CC50 (J774 murine macrophages; Table S2): 18.5 ± 3.4 µM

CCc1nc(N)nc(N)c1-c1ccc(Cl)cc1 [Pyrimethamine, reference compound]
IC50 [1, 9]: 37.4 µM | IC90 [1, 7]: 75 µM

Cc1ccc2c(c1)[n+]([O-])c(-c1ccc(F)cc1)c(C(=O)NCC(=O)O)[n+]2[O-] [Compound 5m, 2-((Carboxymethyl)carbamoyl)-3-(4-fluorophenyl)-6-methylquinoxaline 1,4-dioxide]
IC50 [1, 6]: 17.2 µM | IC90 [1, 7]: 35.1 µM | IC50 ([2]; Leishmania amazonensis): > 270 µM | L. amazonensis promastigote selectivity index (SI) [2]: > 30 | IC50 ([3]; Leishmania donovani): > 270 µM | CC50 at 24 h [4]: 8090 µM

COc1ccc2c(c1)[n+]([O-])c(-c1ccccc1)c(C(=O)NCC(=O)O)[n+]2[O-] [Compound 5f, 2-((Carboxymethyl)carbamoyl)-6-methoxy-3-phenylquinoxaline 1,4-dioxide]
IC50 [1, 6]: 4.28 µM | IC90 [1, 7]: 9.86 µM | IC50 ([2]; Leishmania amazonensis): > 271 µM | L. amazonensis promastigote selectivity index (SI) [2]: > 30 | IC50 ([3]; Leishmania donovani): > 271 µM | CC50 at 24 h [4]: 8130 µM

COC(=O)CNC(=O)c1c(-c2ccc(OC)cc2)[n+]([O-])c2ccccc2[n+]1[O-] [Compound 4b]
IC50 [1, 8]: 40.6 µM | IC90 ([1]; Table S1, Mtb H37Rv): 69.8 µM | IC50 [2]: 157 ± 7.8 µM | IC50 [3]: 261 ± 7.8 µM | CC50 (J774 murine macrophages; Table S2): 1570 µM

COC(=O)CNC(=O)c1c(-c2ccc(C(F)(F)F)cc2)[n+]([O-])c2ccccc2[n+]1[O-] [Compound 4c]
IC50 [1, 8]: 13.2 µM | IC90 ([1]; Table S1, Mtb H37Rv): 25.9 µM | IC50 [2]: > 238 µM | activity against L. amazonensis (in words) [2]: inactive | IC50 [3]: > 238 µM | activity against L. donovani (in words) [3]: inactive | CC50 (J774 murine macrophages; Table S2): 6960 µM

COC(=O)CNC(=O)c1c(-c2ccccc2)[n+]([O-])c2ccccc2[n+]1[O-] [Compound 4a, N-(1,4-Dioxide-3-phenylquinoxaline-2-carbonyl)glycine methyl ester]
IC50 [1, 8]: 26.3 µM | IC90 ([1]; Table S1, Mtb H37Rv): 55.5 µM | IC50 [2]: 171 ± 8.5 µM | IC50 [3]: 103 ± 9.8 µM | IC50 [5]: 12.6 ± 0.3 µM | CC50 (J774 murine macrophages; Table S2): 850 µM | CC50 (J774 murine macrophages; Table S3): 850 µM
